Experimental data: patent publication US10464947B2 (Incyte Corporation, priority 2013, dated 2019)
Where two headings read alike, the source gives them in different places.

Legend:
KMS.12.BM cells = experiment: KMS.12.BM Cell Viability Assay (Example B1); format: cell-based, human; details: Homo sapiens, 72 h, 3 days, Cell Titer-GLO, read-out: KMS cellular IC50
In short: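 KMS.12.BM human myeloma cells, 5000 cells/well in RPMI with 10% FBS, exposed to a compound concentration range for 3 days. Viable cells measured by ATP-based Cell Titer-GLO luminescence after 10 min at room temperature.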

C-myc in KMS.12.BM cells = experiment: KMS.12.BM C-Myc ELISA Assay (Example C1); format: cell-based; details: Homo sapiens, 2 h
Protocol: KMS.12.BM C-Myc ELISA Assay
KMS.12.BM cell line (human myeloma) was purchased from JCRB (Osaka, Japan) and maintained in RPMI with 10% FBS culture medium. To measure the C-myc inhibitory activity of the compounds, the KMS.12.BM cells are plated in the RPMI culture medium at 75000 cells/well/per 200 μL into a 96-well flat bottom polystyrene tissue culture plate (Corning through VWR, NJ), in the presence or absence of a concentration range of test compounds. After 2 h, cells are pelleted and lysed with Cell Extraction Buffer (BioSource, Carlsbad, Calif.) in the presence of protease inhibitors (Life Technologies, Grand Island, N.Y. and Sigma, St Louis, Mo.). Clarified lyses are tested in a C-myc commercial ELISA (Life Technologies, Grand Island, N.Y.).

| SMILES | IC50 (C-myc in KMS.12.BM cells) [nM] | IC50 (KMS.12.BM cells) [nM] | IC50 (KMS.12.BM cells; KMS-12-BM) [nM] |
| --- | --- | --- | --- |
| Cc1noc(C)c1-c1ccc2nc(NC(C)C)n3c2c1OCC3c1ccccc1 (stereo not drawn) [Example 25, 7-(3,5-Dimethylisoxazol-4-yl)-N-isopropyl-4-phenyl-4,5-dihydroimidazo[1,5,4-de][1,4]benzoxazin-2-amine] | < 1000 | < 1000 | – |
| CNc1nc2ccc(-c3c(C)noc3C)c3c2n1C(c1ccccc1)CO3 (stereo not drawn) [Example 26, 7-(3,5-Dimethylisoxazol-4-yl)-N-methyl-4-phenyl-4,5-dihydroimidazo[1,5,4-de][1,4]benzoxazin-2-amine] | < 1000 | < 1000 | – |
| CCNc1nc2ccc(-c3c(C)noc3C)c3c2n1C(c1ccccc1)CO3 (stereo not drawn) [Example 27, 7-(3,5-Dimethylisoxazol-4-yl)-N-ethyl-4-phenyl-4,5-dihydroimidazo[1,5,4-de][1,4]benzoxazin-2-amine] | < 1000 | < 1000 | – |
| Cc1noc(C)c1-c1ccc2nc(N(C)C)n3c2c1OCC3c1ccccc1 (stereo not drawn) [Example 28, 7-(3,5-Dimethylisoxazol-4-yl)-N,N-dimethyl-4-phenyl-4,5-dihydroimidazo[1,5,4-de][1,4]benzoxazin-2-amine] | < 1000 | < 1000 | – |
| Cc1noc(C)c1-c1ccc2nc(NCCO)n3c2c1OCC3c1ccccc1 (stereo not drawn) [Example 29, 2-{[7-(3,5-Dimethylisoxazol-4-yl)-4-phenyl-4,5-dihydroimidazo[1,5,4-de][1,4]benzoxazin-2-yl]amino}ethanol] | < 1000 | < 1000 | – |
| Cc1noc(C)c1-c1ccc2nc(NCC(C)O)n3c2c1OCC3c1ccccc1 (stereo not drawn) [Example 32, 1-{[7-(3,5-Dimethylisoxazol-4-yl)-4-phenyl-4,5-dihydroimidazo[1,5,4-de][1,4]benzoxazin-2-yl]amino}propan-2-ol] | < 1000 | < 1000 | – |
| Cc1noc(C)c1-c1ccc2nc(N(C)CCO)n3c2c1OCC3c1ccccc1 (stereo not drawn) [Example 34, 2-[[7-(3,5-Dimethylisoxazol-4-yl)-4-phenyl-4,5-dihydroimidazo[1,5,4-de][1,4]benzoxazin-2-yl](methyl)amino]ethanol] | < 1000 | < 1000 | – |
| Cc1noc(C)c1-c1ccc2[nH]c(=O)n3c2c1OCC3c1ccccc1OCC(=O)NCCO (stereo not drawn) [Example 50, 2-{2-[7-(3,5-Dimethylisoxazol-4-yl)-2-oxo-1,2,4,5-tetrahydroimidazo[1,5,4-de][1,4]benzoxazin-4-yl]phenoxy}-N-(2-hydroxyethyl)acetamide] | < 1000 | < 1000 | – |
| Cc1noc(C)c1-c1ccc2nc(C(=O)N3CCOCC3)n3c2c1OC[C@@H]3c1ccccn1 [Example 94, (4S)-7-(3,5-Dimethylisoxazol-4-yl)-2-(morpholin-4-ylcarbonyl)-4-pyridin-2-yl-4,5-dihydroimidazo[1,5,4-de][1,4]benzoxazine] | < 1000 | < 1000 | – |
| CNC(=O)c1nc2ccc(-c3c(C)noc3C)c3c2n1[C@@H](c1ccccn1)CO3 [Example 95, (4S)-7-(3,5-Dimethylisoxazol-4-yl)-N-methyl-4-pyridin-2-yl-4,5-dihydroimidazo[1,5,4-de][1,4]benzoxazine-2-carboxamide] | < 1000 | < 1000 | – |
| Cc1noc(C)c1-c1ccc2nc(C(N)=O)n3c2c1OC[C@@H]3c1ccccn1 [Example 96, (4S)-7-(3,5-Dimethylisoxazol-4-yl)-4-pyridin-2-yl-4,5-dihydroimidazo[1,5,4-de][1,4]benzoxazine-2-carboxamide] | < 1000 | < 1000 | – |
| CC(=O)N1CCC(c2nc3ccc(-c4c(C)noc4C)c4c3n2[C@@H](c2ccccn2)CO4)CC1 [Example 109, (4S)-2-(1-Acetylpiperidin-4-yl)-7-(3,5-dimethylisoxazol-4-yl)-4-pyridin-2-yl-4,5-dihydroimidazo[1,5,4-de][1,4]benzoxazine] | < 1000 | < 1000 | – |

Now from value to compound, other results behind:

| IC50 (C-myc in KMS.12.BM cells) [nM] | SMILES | IC50 (KMS.12.BM cells) [nM] | IC50 (KMS.12.BM cells; KMS-12-BM) [nM] |
| --- | --- | --- | --- |
| < 1000 | CCNC(=O)c1ncccc1C1COc2c(-c3c(C)noc3C)ccc3[nH]c(=O)n1c23 (single isomer, unassigned) [Example 133, 3-[7-(3,5-dimethylisoxazol-4-yl)-2-oxo-1,2,4,5-tetrahydroimidazo[1,5,4-de][1,4]benzoxazin-4-yl]-N-ethylpyridine-2-carboxamide] | < 1000 | – |
| < 1000 | Cc1noc(C)c1-c1ccc2[nH]c(=O)n3c2c1OCC3c1cccnc1C(=O)NC1CC1 (single isomer, unassigned) [Example 134, N-Cyclopropyl-3-[7-(3,5-dimethylisoxazol-4-yl)-2-oxo-1,2,4,5-tetrahydroimidazo[1,5,4-de][1,4]benzoxazin-4-yl]pyridine-2-carboxamide] | < 1000 | – |
| < 1000 | Cc1noc(C)c1-c1cc(C(C)O)c2[nH]c(=O)n3c2c1OC[C@@H]3c1ccccn1 (single isomer, unassigned) [Example 144A] | < 1000 | – |
| < 1000 | Cc1noc(C)c1-c1ccc2c3c1OCC(c1ccccc1)n3c(=O)n2C (stereo not drawn) [Example 2, 7-(3,5-Dimethylisoxazol-4-yl)-1-methyl-4-phenyl-4,5-dihydroimidazo[1,5,4-de][1,4]benzoxazin-2(1H)-one] | < 1000 | – |
| < 1000 | Cc1noc(C)c1-c1ccc2[nH]c(=O)n3c2c1OC(C)C3c1ccccc1 (stereo not drawn) [Example 3, 7-(3,5-Dimethylisoxazol-4-yl)-5-methyl-4-phenyl-4,5-dihydroimidazo[1,5,4-de][1,4]benzoxazin-2(1H)-one] | < 1000 | – |
| < 1000 | Cc1noc(C)c1-c1ccc2[nH]c(=O)n3c2c1OCC3c1ccc(C#N)cc1 (stereo not drawn) [Example 4, 4-[7-(3,5-Dimethylisoxazol-4-yl)-2-oxo-1,2,4,5-tetrahydroimidazo[1,5,4-de][1,4]benzoxazin-4-yl]benzonitrile] | < 1000 | – |
| < 1000 | Cc1noc(C)c1-c1ccc2[nH]c(=O)n3c2c1OCC3c1cccnc1 (stereo not drawn) [Example 5, 7-(3,5-Dimethylisoxazol-4-yl)-4-pyridin-3-yl-4,5-dihydroimidazo[1,5,4-de][1,4]benzoxazin-2(1H)-one] | < 1000 | – |
| < 1000 | COc1ccccc1C1COc2c(-c3c(C)noc3C)ccc3[nH]c(=O)n1c23 (stereo not drawn) [Example 7, 7-(3,5-Dimethylisoxazol-4-yl)-4-(2-methoxyphenyl)-4,5-dihydroimidazo[1,5,4-de][1,4]benzoxazin-2(1H)-one] | < 1000 | – |
| < 1000 | Cc1noc(C)c1-c1ccc2[nH]c(=O)n3c2c1OCC3c1ccc(F)cc1F (stereo not drawn) [Example 8, 7-(3,5-Dimethylisoxazol-4-yl)-4-(2,4-difluorophenyl)-4,5-dihydroimidazo[1,5,4-de][1,4]benzoxazin-2(1H)-one] | < 1000 | – |
| < 1000 | Cc1noc(C)c1-c1ccc2nc(C)n3c2c1OCC3c1ccccc1 (stereo not drawn) [Example 9, 7-(3,5-Dimethylisoxazol-4-yl)-2-methyl-4-phenyl-4,5-dihydroimidazo[1,5,4-de][1,4]benzoxazine] | < 1000 | – |
| < 1000 | Cc1noc(C)c1-c1ccc2c3c1OCC(c1ccccc1)n3c(=O)n2CCN1CCOCC1 (stereo not drawn) [Example 10, 7-(3,5-Dimethylisoxazol-4-yl)-1-(2-morpholin-4-ylethyl)-4-phenyl-4,5-dihydroimidazo[1,5,4-de][1,4]benzoxazin-2(1H)-one] | – | < 1000 |
| < 1000 | Cc1noc(C)c1-c1ccc2[nH]c(=O)n3c2c1OCC3c1nccs1 (stereo not drawn) [Example 21, 7-(3,5-Dimethylisoxazol-4-yl)-4-(1,3-thiazol-2-yl)-4,5-dihydroimidazo[1,5,4-de][1,4]benzoxazin-2(1H)-one] | < 1000 | – |
